Data from patent US8273890B2 (4SC AG, priority 2007, dated 2012).
pIC50: −log10 of the molar value.

Biological target: T1, recombinant Plk1 protein (Homo sapiens, UniProt P53350)
T1 construct: histidine tag (N); made in house; host or cells: SF9 insect cells
Assay: Plk1 kinase activity inhibition assay (33P-ATP, alpha casein substrate, flash plates)
Type: biochemical
Conditions: enzymatic assay, 100 nM Li-ATP, 80 minutes at 30° C.
Summary of the method: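 N-terminally His-tagged human Plk1 from SF9 cells (50–100 ng/well) phosphorylated alpha casein (500 ng/well) with 100 nM ATP including 33P-ATP at pH 7.5, with Mg2+ and Mn2+, 80 min at 30 °C. 33P incorporation read on scintillator-coated flash plates; IC50 derived.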

T1 sequence (P53350 whole entry): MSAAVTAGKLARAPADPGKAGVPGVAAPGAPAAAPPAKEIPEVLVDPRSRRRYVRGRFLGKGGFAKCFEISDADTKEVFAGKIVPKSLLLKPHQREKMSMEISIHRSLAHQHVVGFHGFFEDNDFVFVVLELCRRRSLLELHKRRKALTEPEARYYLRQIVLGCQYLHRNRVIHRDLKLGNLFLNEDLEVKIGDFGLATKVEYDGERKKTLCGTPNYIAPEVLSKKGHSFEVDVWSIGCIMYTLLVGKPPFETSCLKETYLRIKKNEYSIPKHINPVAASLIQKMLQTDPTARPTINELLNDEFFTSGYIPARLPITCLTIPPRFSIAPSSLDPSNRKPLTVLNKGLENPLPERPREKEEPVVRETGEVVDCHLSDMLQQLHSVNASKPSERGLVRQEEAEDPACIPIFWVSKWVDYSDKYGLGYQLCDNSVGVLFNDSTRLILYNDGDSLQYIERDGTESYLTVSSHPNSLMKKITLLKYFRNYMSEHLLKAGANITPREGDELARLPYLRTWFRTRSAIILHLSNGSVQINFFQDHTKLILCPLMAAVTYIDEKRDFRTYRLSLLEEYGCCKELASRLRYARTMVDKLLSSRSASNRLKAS

With C[C@@H](Oc1cc(-n2cnc3cnc(CN4CCN(CCO)CC4)cc32)sc1C(N)=O)c1ccccc1C(F)(F)F [Example 61, 5-(6-{[4-(2-hydroxyethyl)piperazin-1-yl]methyl}-1H-imidazo[4,5-c]pyridin-1-yl)-3-{(1R)-1-[2-(trifluoromethyl)phenyl]ethoxy}thiophene-2-carboxamide] the pIC50 was greater than 8.00.
C[C@@H](Oc1cc(-n2cnc3cnc(CN4CCN(C)CC4)cc32)sc1C(N)=O)c1ccccc1C(F)(F)F [Example 24, 5-{6-[(4-methylpiperazin-1-yl)methyl]-1H-imidazo[4,5-c]pyridin-1-yl}-3-{(1R)-1-[2-(trifluoromethyl)phenyl]ethoxy}thiophene-2-carboxamide] gave a pIC50 greater than 8.00.
In the case of CC(Oc1cc(-n2cnc3cnc(CN4CCN(C)CC4)cc32)sc1C(N)=O)c1ccccc1C(F)(F)F (stereo not drawn) [Example 45, 5-{6-[(4-methylpiperazin-1-yl)methyl]-1H-imidazo[4,5-c]pyridin-1-yl}-3-{-1-[2-(trifluoromethyl)phenyl]ethoxy}thiophene-2-carboxamide], the pIC50 was greater than 8.00.
With Cc1ccccc1C(C)Oc1cc(-n2cnc3cnc(CO)cc32)sc1C(N)=O (stereo not drawn) [Example 110, 5-[6-(hydroxymethyl)-1H-imidazo[4,5-c]pyridin-1-yl]-3-[1-(2-methylphenyl)ethoxy]thiophene-2-carboxamide] the pIC50 was greater than 8.00.
In the case of CN1CCN(Cc2cc3c(cn2)ncn3-c2cc(OC(c3ccccc3Cl)C(F)(F)F)c(C(N)=O)s2)CC1 (stereo not drawn) [Example 76, 3-[1-(2-chlorophenyl)-2,2,2-trifluoroethoxy]-5-{6-[(4-methylpiperazin-1-yl)methyl]-1H-imidazo[4,5-c]pyridin-1-yl}thiophene-2-carboxamide], the pIC50 was greater than 8.00.
With CCC(Oc1cc(-n2cnc3cnc(CN4CCN(CC)CC4)cc32)sc1C(N)=O)c1ccccc1Cl (stereo not drawn) [Example 142] the pIC50 was greater than 8.00.
CC(Oc1cc(-n2cnc3cnc(CN4CCN(C)CC4)cc32)sc1C(N)=O)c1ccccc1F (stereo not drawn) [Example 103, 3-[1-(2-fluorophenyl)ethoxy]-5-{6-[(4-methylpiperazin-1-yl)methyl]-1H-imidazo[4,5-c]pyridin-1-yl}thiophene-2-carboxamide] gave a pIC50 of 7.00 to 8.00.
Compound NC(=O)c1sc(-n2cnc3cnccc32)cc1OCc1cccc(C(F)(F)F)c1 [Example 35, 5-(1H-imidazo[4,5-c]pyridin-1-yl)-3-{[3-(trifluoromethyl)benzyl]oxy}thiophene-2-carboxamide] has a pIC50 of 7.00 to 8.00.
Compound CN1CCN(Cc2cc3ncn(-c4cc(OCc5ccccc5C(F)(F)F)c(C(N)=O)s4)c3cn2)CC1 [Example 37, 5-{6-[(4-methylpiperazin-1-yl)methyl]-3H-imidazo[4,5-c]pyridin-3-yl}-3-{[2-(trifluoromethyl)benzyl]oxy}thiophene-2-carboxamide] has a pIC50 of 5.00 to 6.00.
Work on COc1cc2c(cn1)ncn2-c1cc(OCc2ccccc2C(F)(F)F)c(C(N)=O)s1 [Example 16, 5-(6-Methoxy-1H-imidazo[4,5-c]pyridin-1-yl)-3-{[2-(trifluoromethyl)benzyl]oxy}thiophene-2-carboxamide] yielded a pIC50 of 7.00 to 8.00.
Work on C[C@@H](Oc1cc(-n2cnc3cnc(CN4CCN(Cc5ccccc5)CC4)cc32)sc1C(N)=O)c1ccccc1C(F)(F)F [Example 79, 5-{6-[(4-benzylpiperazin-1-yl)methyl]-1H-imidazo[4,5-c]pyridin-1-yl}-3-{(1R)-1-[2-(trifluoromethyl)phenyl]ethoxy}thiophene-2-carboxamide] yielded a pIC50 of 7.00 to 8.00.
C[C@@H](Oc1cc(-n2cnc3cc(CNS(C)(=O)=O)ncc32)sc1C(N)=O)c1ccccc1C(F)(F)F [Example 90, 5-(6-{[(methylsulfonyl)amino]methyl}-3H-imidazo[4,5-c]pyridin-3-yl)-3-{(1R)-1-[2-(trifluoromethyl)phenyl]ethoxy}thiophene-2-carboxamide] gave a pIC50 of 7.00 to 8.00.
Compound C[C@@H](Oc1cc(-n2cnc3cnc(CN4CCN(S(=O)(=O)N(C)C)CC4)cc32)sc1C(N)=O)c1ccccc1C(F)(F)F [Example 71, 5-[6-({4-[(dimethylamino)sulfonyl]piperazin-1-yl}methyl)-1H-imidazo[4,5-c]pyridin-1-yl]-3-{(1R)-1-[2-(trifluoromethyl)phenyl]ethoxy}thiophene-2-carboxamide] has a pIC50 of 7.00 to 8.00.
Compound CNCc1cc2ncn(-c3cc(O[C@H](C)c4ccccc4C(F)(F)F)c(C(N)=O)s3)c2cn1 [Example 116, 5-{6-[(methylamino)methyl]3H-imidazo[4,5-c]pyridin-3-yl}-3-{(1R)-1-[2-(trifluoromethyl)phenyl]ethoxy}thiophene-2-carboxamide] has a pIC50 of 7.00 to 8.00.
In the case of CCc1ccccc1COc1cc(-n2cnc3cnc(CN4CCN(CC)CC4)cc32)sc1C(N)=O [Example 154, 3-[(2-ethylbenzyl)oxy]-5-{6-[(4-ethylpiperazin-1-yl)methyl]-1H-imidazo[4,5-c]pyridin-1-yl}thiophene-2-carboxamide], the pIC50 was 7.00 to 8.00.
Work on C[C@@H](Oc1cc(-n2cnc3cnc(CN4CCN(C)CC4)cc32)sc1C(N)=O)c1ccccc1Br [Example 98, 3-[(1R)-1-(2-bromophenyl)ethoxy]-5-{6-[(4-methylpiperazin-1-yl)methyl]-1H-imidazo[4,5-c]pyridin-1-yl}thiophene-2-carboxamide] yielded a pIC50 greater than 8.00.
C[C@@H](Oc1cc(-n2cnc3cnc(CN4CCN(C(=O)C(F)(F)F)CC4)cc32)sc1C(N)=O)c1ccccc1C(F)(F)F [Example 159, 5-(6-{[4-(trifluoroacetyl)piperazin-1-yl]methyl}-1H-imidazo[4,5-c]pyridin-1-yl)-3-{(1R)-1-[2-(trifluoromethyl)phenyl]ethoxy}thiophene-2-carboxamide] showed a pIC50 of 7.00 to 8.00.
Compound CC(Oc1cc(-n2cnc3cc(CNC4CCC4)ncc32)sc1C(N)=O)c1ccccc1C(F)(F)F (stereo not drawn) [Example 111, 5-{6-[(cyclobutylamino)methyl]-3H-imidazo[4,5-c]pyridin-3-yl}-3-{-1-[2-(trifluoromethyl)phenyl]ethoxy}thiophene-2-carboxamide] has a pIC50 of 6.00 to 7.00.
In the case of CC1CCN(Cc2cc3c(cn2)ncn3-c2cc(O[C@H](C)c3ccccc3C(F)(F)F)c(C(N)=O)s2)CC1 [Example 93, 5-{6-[(4-methylpiperidin-1-yl)methyl]-1H-imidazo[4,5-c]pyridin-1-yl}-3-{(1R)-1-[2-(trifluoromethyl)phenyl]ethoxy}thiophene-2-carboxamide], the pIC50 was 7.00 to 8.00.
NC(=O)c1sc(-n2cnc3ccncc32)cc1OCc1ccccc1C(F)(F)F [Example 3, 5-(3H-Imidazo[4,5-c]pyridin-3-yl)-3-{[2-(trifluoromethyl)benzyl]oxy}thio-phene-2-carboxamide] showed a pIC50 of 6.00 to 7.00.
With CN(CCN1CCOCC1)C(=O)c1cc2c(cn1)ncn2-c1cc(OCc2ccccc2C(F)(F)F)c(C(N)=O)s1 [Example 11, 1-(5-Carbamoyl-4-{[2-(trifluoromethyl)benzyl]oxy}-2-thienyl)-N-methyl-N-(2-morpholin-4-ylethyl)-1H-imidazo[4,5-c]pyridine-6-carboxamide] the pIC50 was 5.00 to 6.00.
For C[C@@H](Oc1cc(-n2cnc3cnc(CN4CCN(CC(=O)N5CCCC5)CC4)cc32)sc1C(N)=O)c1ccccc1C(F)(F)F [Example 145, 5-(6-{[4-(2-oxo-2-pyrrolidin-1-ylethyl)piperazin-1-yl]methyl}-1H-imidazo[4,5-c]pyridin-1-yl)-3-{(1R)-1-[2-(trifluoromethyl)phenyl]ethoxy}thiophene-2-carboxamide], the pIC50 was 7.00 to 8.00.
Compound CCOc1ccc(OCC)c(COc2cc(-n3cnc4cnc(CN5CCN(C)CC5)cc43)sc2C(N)=O)c1 [Example 155, 3-[(2,5-diethoxybenzyl)oxy]-5-{6-[(4-methylpiperazin-1-yl)methyl]-1H-imidazo[4,5-c]pyridin-1-yl}thiophene-2-carboxamide] has a pIC50 of 6.00 to 7.00.
For C[C@@H](Oc1cc(-n2cnc3cnc(CN4CCN(c5ccncc5)CC4)cc32)sc1C(N)=O)c1ccccc1Cl [Example 131, 3-[(1R)-1-(2-chlorophenyl)ethoxy]-5-{6-[(4-pyridin-4-ylpiperazin-1-yl)methyl]-1H-imidazo[4,5-c]pyridin-1-yl}thiophene-2-carboxamide], the pIC50 was 7.00 to 8.00.
In the case of CCN1CCN(Cc2cc3c(cn2)ncn3-c2cc(O[C@H](C)c3ccccc3Cl)c(C(N)=O)s2)CC1 [Example 130, 3-[(1R)-1-(2-chlorophenyl)ethoxy]-5-{6-[(4-ethylpiperazin-1-yl)methyl]-1H-imidazo[4,5-c]pyridin-1-yl}thiophene-2-carboxamide], the pIC50 was greater than 8.00.
CCN1CCN(Cc2cc3c(cn2)ncn3-c2cc(OC(C)c3ccccc3F)c(C(N)=O)s2)CC1 (stereo not drawn) [Example 152, 5-{6-[(4-ethylpiperazin-1-yl)methyl]-1H-imidazo[4,5-c]pyridin-1-yl}-3-[1-(2-fluorophenyl)ethoxy]thiophene-2-carboxamide] showed a pIC50 of 7.00 to 8.00.
With NC(=O)c1sc(-n2cnc3ccncc32)cc1OCc1ccccc1F [Example 31, 3-[(2-fluorobenzyl)oxy]-5-(3H-imidazo[4,5-c]pyridin-3-yl)thiophene-2-carboxamide] the pIC50 was 7.00 to 8.00.
In the case of CC(=O)N1CCCN(Cc2cc3c(cn2)ncn3-c2cc(O[C@H](C)c3ccccc3C(F)(F)F)c(C(N)=O)s2)CC1 [Example 81, 5-{6-[(4-acetyl-1,4-diazepan-1-yl)methyl]-1H-imidazo[4,5-c]pyridin-1-yl}-3-{(1R)-1-[2-(trifluoromethyl)phenyl]ethoxy}thiophene-2-carboxamide], the pIC50 was 7.00 to 8.00.
Work on CC1CN(Cc2cc3c(cn2)ncn3-c2cc(O[C@H](C)c3ccccc3C(F)(F)F)c(C(N)=O)s2)C(C)CN1 (stereo partly drawn) [Example 83, 5-{6-[(2,5-dimethylpiperazin-1-yl)methyl]-1H-imidazo[4,5-c]pyridin-1-yl}-3-{(1R)-1-[2-(trifluoromethyl)phenyl]ethoxy}thiophene-2-carboxamide] yielded a pIC50 of 7.00 to 8.00.
Compound C[C@@H](Oc1cc(-n2cnc3cnc(CN4CCN(C)C(=O)C4)cc32)sc1C(N)=O)c1ccccc1C(F)(F)F [Example 72, 5-{6-[(4-methyl-3-oxopiperazin-1-yl)methyl]-1H-imidazo[4,5-c]pyridin-1-yl}-3-{(1R)-1-[2-(trifluoromethyl)phenyl]ethoxy}thiophene-2-carboxamide] has a pIC50 greater than 8.00.
